Assay results: patent US20100273752A1, “MEQUITAZINE FOR TREATING OR PREVENTING PATHOLOGIES INVOLVING HISTAMINE H4 RECEPTORS” (PIERRE FABRE MEDICAMENT, priority 2007, published 2010)
Values joined by “and” are separate entries in the source; they are usually repeats but may differ in a detail not shown here. Equal values may be shown once.

Columns and labels:
histamine H4 receptor [1] = target: T1, histamine H4 receptor (Homo sapiens, UniProt Q9H3N8); assay: Receptor binding in vitro, HEK-293 cells stably transfected with human H4 receptor, 10 nM tritiated histamine; design: expressed in transfected cells; host or cells: HEK-293
T1 sequence (Q9H3N8 whole entry): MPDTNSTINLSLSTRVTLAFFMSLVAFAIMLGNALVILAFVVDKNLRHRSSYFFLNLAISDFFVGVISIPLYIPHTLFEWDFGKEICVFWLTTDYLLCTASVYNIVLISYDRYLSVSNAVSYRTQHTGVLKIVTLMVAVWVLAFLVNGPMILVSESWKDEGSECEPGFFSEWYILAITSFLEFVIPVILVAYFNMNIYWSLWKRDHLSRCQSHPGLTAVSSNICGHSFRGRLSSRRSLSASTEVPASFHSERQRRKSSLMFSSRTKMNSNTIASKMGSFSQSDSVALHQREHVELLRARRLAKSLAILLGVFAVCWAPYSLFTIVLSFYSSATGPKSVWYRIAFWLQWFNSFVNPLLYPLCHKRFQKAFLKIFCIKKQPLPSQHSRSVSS
Method: The goal of this study is to determine an affinity constant of the compound with respect to human histamine H4 receptor in vitro. The model chosen is HEK-293 cells transfected in a stable fashion by cDNA coding for human H4 receptor (Liu et al., 2001). First is determined the affinity of cells expressing each type of receptor for a ligand for which it was also established that it bound 100% to the receptor. The optimal ligand for the recombinant receptor is 10 nM tritiated histamine. Receptor binding is defined as follows: the difference between total binding and the nonspecific binding determined in the presence of excess cold ligand. The results are expressed as a percentage of optimal binding obtained with the ligand model (100%).

H4 receptor = H4 receptor (Homo sapiens, UniProt Q9H3N8); assay: G protein activation test ([35S] GTP binding)
Sequence of H4 receptor (Q9H3N8 whole entry, the tested form may be a part): as the sequence (Q9H3N8 whole entry) above

[2] = Transcutaneous passage through human skin explants in dynamic diffusion chamber; type: in vitro ADME
Text: The importance of H4 receptor in pruritus was recently established. Thus, an antagonist targeting the histamine H4 receptors involved in dermatological pruritus can constitute a weapon of choice for breaking behaviors related to pruritus and, consequently, for avoiding superinfections generated by the skin lesions caused by pruritus. […] To this end, it is useful to have an H4 antihistamine likely to cross the cutaneous barrier in order to reach its target on subcutaneous mast cells. […] Human skin explants were placed in a dynamic diffusion chamber (diffusion area of 0.636 cm^2), with the dermis in contact with the receptor medium (water; 0.9% NaCl 0.9% NaN3 0.1%/ethanol; 75/25; v/v). The flow rate is 1.5 ml/h. The study is carried out at 32° C. The solution containing the compound (500 μl to 2.5 mg/ml, or 10 μCi per cell) is deposited at T=0. The study of transcutaneous passage is carried out under occlusion. The receiving liquid is sampled at 3, 6, 9, 12, 16, 20 and 24 hours.

[3] = tested on: plantar edema induced by histamine; assay: Plantar edema induced by histamine in the mouse, oral administration; type: in vivo; conditions: for Inhibition of inflammation (%): 3 mg/kg oral
Method: The goal of this experiment was to detect possible anti-inflammatory activity of […], […] and […] with respect to plantar edema induced by histamine in the mouse. The principle of the test is inspired by the publication of Kreutner et al. (2000). All groups were composed of 10 animals. The products were administered by oral route (25 ml/kg) in pretreatment, at various times: 120, 90, 60 and 30 minutes before the inflammation-producing agent. Sixty minutes later, an injection (10 μl) in the paw was given under isoflurane anesthesia. The right paw received 13 μg of histamine dihydrochloride and the left paw physiological saline solution (histamine vehicle). Thirty minutes after the injections, the animals were euthanized by cervical dislocation. The paws were sampled and weighed. The edemas were quantified by the difference between the weights of the paws (weight of right paw-weight of left paw).

histamine H4 receptor [4] = target: T1, histamine H4 receptor; assay: Affinity constants by competition with tritiated histamine on membrane preparations from CHO cells expressing H4 receptor; type: binding; design: expressed in transfected cells; host or cells: CHO; conditions: CHO cell membranes
Text: In a second series of experiments, the affinity constants of these three compounds are precisely determined by competition with the tritiated histamine radioligand on membrane preparations from CHO cells expressing in a stable manner histamine H4 receptor.

[5] = tested on: bronchoconstriction induced by acetylcholine; assay: Inhibition of acetylcholine-induced bronchoconstriction in anaesthetized ventilated guinea pigs; type: in vivo, guinea pig
Method: Guinea pigs are anaesthetized and artificially ventilated. The air penetrating the lungs is measured by means of a sensor. Each inspiration is thus quantified. Bronchoconstriction is then induced by intravenous injection of acetylcholine. The effect of acetylcholine is a direct and immediate modification of bronchial tonus. The bronchoconstriction effects of acetylcholine are evaluated in mm at the peak of the effects.

respiratory functions = assay: Effects on respiratory functions after oral administration in male Wistar rats; type: in vivo, rat
Method: The effects of […] (0.5, 50 and 100 mg/kg) on respiratory functions are analyzed after oral (per os) administration in male Wistar rats (8 rats/dose). […] (100 mg/kg) administered under the same conditions is used as a reference substance. Theophylline (100 mg/kg), administered under the same experimental conditions, is used as a reference substance. Carboxymethyl cellulose (0.5%) in distilled water is used as a control vehicle. At the end of the testing period (i.e., 360 minutes after administration of the dose), the behavior of the animals as well as the diameter of their pupils (miosis/mydriasis) are evaluated. Blood samples are taken from each rat (except those pertaining to the theophylline group) in order to analyze the concentration of the substance in the blood. […]

[6] = tested on: histamine-induced bronchoconstriction; assay: Histamine-induced bronchoconstriction, Konzett model, intravenous administration; type: in vivo, guinea pig
Method: The goal of these experiments is to evaluate the activity of the three compounds […] and […] with respect to histamine-induced bronchoconstriction in the Konzett (1940) guinea pig model. Previously we saw that the three compounds exerted antihistamine activity with respect to H4 receptor in vitro, while on the other hand in vivo only […] and […] appeared anti-inflammatory when the inflammation is generated by histamine. It seems that […] loses its activity when it is administered by oral route. With an aim of analyzing the activity by intravenous route of the three products, the following test was conducted. The animals are ventilated, by means of a constant pressure respiratory pump, by a volume of air in excess. […] The variations observed represent changes in bronchial tonus. Histamine-induced bronchoconstriction causes an increase in the excess volume measured by the sensor. The various compounds are administered by way of the jugular vein, which is catheterized beforehand. Histamine stimulation is then carried out by intravenous route at a dose of 7 μg/kg.

With c1ccc2c(c1)Sc1ccccc1N2CC1CN2CCC1CC2 (racemic) [L0013, 10-[(3R,3S)-1-azabicyclo[2.2.2]oct-3-ylmethyl]-10H-phenothiazine] the “Binding to human histamine H4 receptors (in words)” value (histamine H4 receptor [1]) was “strongly bind”, the “Effect on G protein activation induced by histamine” value (H4 receptor; 0.1 μM histamine, FIG. 1a) was “antagonize the activating action” and the “Functional character at H4 receptor (basal activity in the absence of agonist)” value (H4 receptor; FIG. 1b) was “inverse agonists”. For the same molecule, the “Accumulated quantity in receiving liquid (receptor zone) at 24 hours” value ([2]; 24 hours) was 107 μg/cm^2 and 107±28 μg/cm^2, the “Nearly constant maximum flow” value ([2]; human, 2.5 mg/ml) was 5.4 μg/cm^2/h and the “Time at which nearly constant maximum flow is reached” value ([2]; human, 2.5 mg/ml) was 16 h. The “Amount of compound in dermis” value ([2]; human, 24 h, 2.5 mg/ml) was 45±14 μg/cm^2, the “Amount of compound in epidermis” value ([2]; human, 24 h, 2.5 mg/ml) was 56±17 μg/cm^2 and the “Total amount of compound in skin (epidermis and dermis)” value ([2]; human, 24 h, 2.5 mg/ml) was 101 μg/cm^2. The Transcutaneous passage ([2]; human, 24 h, 2.5 mg/ml) was “approx. 100 μg/cm^2/24 h”, the “Inhibition of inflammation (%)” value ([3]; pretreatment −30 min) was −54% and the “Inhibition of inflammation (%)” value ([3]; pretreatment −60 min) was −65%. The “Inhibition of inflammation (%)” value ([3]; pretreatment −90 min) was −82%, the “Inhibition of inflammation (%)” value ([3]; pretreatment −120 min) was −80% and the “Anti-inflammatory activity, range over pretreatment times” value ([3]; oral, 120, 90, 60 and 30 minutes beforehand) was −54% to −82%. For the same molecule, the Ki (histamine H4 receptor [4]) was 1630 ± 200 nM, the “Percentage of inhibition (%)” value ([5]; dose 25 μg/kg) was −8 ± 1% and the “Percentage of inhibition (%)” value ([5]; dose 50 μg/kg) was −25 ± 2%. For the same molecule, the “Percentage of inhibition (%)” value ([5]; dose 100 μg/kg) was −24 ± 6%, the “Change in respiratory rate” value (respiratory functions; 100 mg/kg p.o., at 60 minutes) was “+80%” and the “Change in respiratory volume” value (respiratory functions; 100 mg/kg p.o., at 60 minutes) was −26%. The “Change in relaxation time” value (respiratory functions; 100 mg/kg p.o., at 120 minutes) was −30%, the Pupil diameter (respiratory functions; rat, in vivo) was “appreciable increase” and the “Inhibition at 5 min (%)” value ([6]; 12.5 mg/kg i.v.) was −35 ± 6%. For the same molecule, the “Inhibition at 30 min (%)” value ([6]; 12.5 mg/kg i.v.) was −39 ± 7%, the “Inhibition at 5 min (%)” value ([6]; 25 mg/kg i.v.) was −35 ± 5% and the “Inhibition at 30 min (%)” value ([6]; 25 mg/kg i.v.) was −61 ± 5%. For the same molecule, the “Inhibition at 5 min (%)” value ([6]; 37.5 mg/kg i.v.) was −26 ± 4%, the “Inhibition at 30 min (%)” value ([6]; 37.5 mg/kg i.v.) was −51 ± 8% and the “Inhibition at 5 min (%)” value ([6]; 50 mg/kg i.v.) was −37 ± 5%. For the same molecule, the “Inhibition at 30 min (%)” value ([6]; 50 mg/kg i.v.) was −57 ± 7%.
